Experimental data from patent US6861529B2, “Cycloalkypyrrole-3-carboxylic acid derivatives and heterocycloalkylpyrrole-3-carboxylic acid derivatives” (Pfizer Inc, priority 2001, dated 2005).

biological target: benzodiazepine site of the GABAA receptor; assay: Binding assay (3H-Ro15-1788 displacement, rat cortical tissue homogenate); conditions: 0.5 nM 3H-Ro15-1788 [3H-Flumazenil], 30 min at 4° C., Cheng-Prussof equation

SMILES | Ki
O=C(Nc1ccccn1)c1c[nH]c2c1C(=O)CC(c1ccc(F)cc1)CC2 (stereo not drawn) [Example 4, 6-(4-Fluoro-phenyl)-4-oxo-1,4,5,6,7,8-hexahydrocyclohepta[b]pyrrole-3-carboxylic acid pyridin-2-ylamide] | 7 nM
CC1CCc2[nH]cc(C(=O)Nc3ccccn3)c2C(=O)C1 (stereo not drawn) [Example 2, 6-Methyl-4-oxo-1,4,5,6,7,8-hexahydro-cydohepta[b]pyrrole-3-carboxylic acid pyridin-2-ylamide] | 2 nM
O=C(Nc1ccccn1)C1C=NC2=C1C(Nc1ccccn1)CCCC2 (stereo not drawn) [Example 10, 4-(Pyridin-2-ylamino)-3,4,5,6,7,8-hexahydro-cyclohepta[b]pyrrole-3-carboxylic acid pyridin-2-ylamide] | 24 nM
COc1ccc(C2CCc3[nH]cc(C(=O)Nc4ccccn4)c3C(=O)C2)cc1F (stereo not drawn) [Example 5, 6-(3-Fluoro-4-methoxy-phenyl)-4-oxo-1,4,5,6,7,8-hexahydro-cyclohepta[b]pyrrole-3carboxylic acid pyridin-2-ylamide] | 8 nM
O=C(Nc1ccccn1)c1c[nH]c2c1C(=O)C1CN(Cc3ccccc3)CC1CC2 (stereo not drawn) [Example 6, 6-Benzyl-4-oxo-4,4a,5,6,7,7a,8,9-octahydro-1H-1,6-diaza-cyclopenta[f]azulene-3-carboxylic acid pyridin-2-ylamide] | 4 nM
CN1CC2CCc3[nH]cc(C(=O)Nc4ccccn4)c3C(=O)C2C1 (stereo not drawn) [Example 8, 6-Methyl-4-oxo-4,4a,5,6,7,7a,8,9-octahydro-1H-1,6-diaza-cyclopenta[f]azulene-3-carboxylic acid pyridin-2-ylamide] | 8 nM
O=C(Nc1ccccn1)c1c[nH]c2c1C(=O)C1CNCC1CC2 (stereo not drawn) [Example 7, 4-Oxo-4,4a,5,6,7,7a,8,9-octahydro-1H-1,6-diaza-cyclopenta[f]azulene-3-carboxylic acid pyridin-2-ylamide] | 7 nM
CC(C)C1CCc2[nH]cc(C(=O)Nc3ccccn3)c2C(=O)C1 (stereo not drawn) [Example 3, 6-Isopropyl-4-oxo-1,4,5,6,7,8-hexahydro-cyclohepta[b]pyrrole-3-carboxylic acid pyridin-2-ylamide] | 1 nM
CN(C)CC1CCc2[nH]cc(C(=O)Nc3ccccn3)c2C(=O)C1 (stereo not drawn) [Example 9, 6-Dimethylaminomethyl-4-oxo-1,4,5,6,7,8-hexahydro-cyclohepta[b]pyrrole-3-carboxylic acid pyridin-2-ylamide] | 23 nM
